In the NIST ThermoML archive (doi:10.1021/je050494l) one finds refractive index data, which are given here for five molecules.

This series is described as follows: refractive index (Na D-line) (dimensionless). The settings on record: 298.2 K, 101.33 kPa, Liquid.

Each structure is given as a SMILES string. Numbers after ± are expanded uncertainties.

The refractive index is the speed of light in vacuum divided by its phase velocity in the sample. With `c1ccccc1` [benzene], the refractive index is given as 1.4972 ± 0.0009.

For the molecule `CCCCCCC` [heptane], the refractive index came out at 1.385 ± 0.0009.

Take `CCCCCCCC[n+]1ccn(C)c1.COCCOCCOS(=O)(=O)[O-]` [1-methyl-3-octylimidazolium 2-(2-methoxyethoxy)ethyl sulfate]: the refractive index was 1.466 ± 0.0009.

In the case of `CCCCCCCCCCCCCCCC` [hexadecane], the refractive index is given as 1.4318 ± 0.0009.

Turning to `CCCCCCCCOS(=O)(=O)[O-].CCn1cc[n+](C)c1` [1-ethyl-3-methylimidazolium octyl sulfate], the refractive index (Standard Abbe refractometry) came to 1.471 ± 0.0006.
